ChEMBL document CHEMBL4680259, “Discovery of bazedoxifene analogues targeting glycoprotein 130” (Eur J Med Chem, 2020)
Activity calls are given as the source filed them. The calls are words filed in the database; no cut-off is given here.

Legend:
[1] = target: T1, Interleukin-6 receptor subunit beta (Homo sapiens) (UniProt P40189); assay: Inhibition of GP130 in human A549 cells assessed as reduction in survivin protein expression after 24 hrs by Western blot analysis; type: cell-based; conditions: dose 3-9 µM
T1 sequence (whole entry): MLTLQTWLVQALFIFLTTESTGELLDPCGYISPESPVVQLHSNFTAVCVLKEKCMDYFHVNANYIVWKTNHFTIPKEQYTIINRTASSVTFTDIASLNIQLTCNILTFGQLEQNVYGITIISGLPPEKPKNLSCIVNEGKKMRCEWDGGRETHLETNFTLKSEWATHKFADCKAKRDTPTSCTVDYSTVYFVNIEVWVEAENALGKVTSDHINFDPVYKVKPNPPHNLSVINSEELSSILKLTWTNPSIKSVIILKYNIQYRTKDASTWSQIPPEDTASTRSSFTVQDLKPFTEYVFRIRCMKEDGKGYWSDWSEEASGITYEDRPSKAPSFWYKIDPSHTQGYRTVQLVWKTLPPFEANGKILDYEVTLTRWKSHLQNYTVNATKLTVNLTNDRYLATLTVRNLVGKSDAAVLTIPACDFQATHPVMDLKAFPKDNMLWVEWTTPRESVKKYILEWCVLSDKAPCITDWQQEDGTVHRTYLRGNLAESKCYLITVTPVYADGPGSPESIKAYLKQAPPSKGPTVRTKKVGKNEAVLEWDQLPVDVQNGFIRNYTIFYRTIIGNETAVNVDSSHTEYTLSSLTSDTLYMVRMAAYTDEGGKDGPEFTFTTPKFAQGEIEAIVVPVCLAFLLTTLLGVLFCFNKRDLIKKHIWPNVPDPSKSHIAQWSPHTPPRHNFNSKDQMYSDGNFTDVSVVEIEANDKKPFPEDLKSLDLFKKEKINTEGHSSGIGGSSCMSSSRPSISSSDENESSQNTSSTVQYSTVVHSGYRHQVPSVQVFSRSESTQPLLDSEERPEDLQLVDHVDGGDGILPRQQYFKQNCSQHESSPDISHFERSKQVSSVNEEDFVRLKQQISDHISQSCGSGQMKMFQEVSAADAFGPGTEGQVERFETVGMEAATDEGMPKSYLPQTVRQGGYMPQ

[2] = Clearance in rat at 5 mg/kg, ig; type: ADME, organism-based; conditions: in vivo, po
A549 [3] = assay: Antimigratory activity against human A549 cells assessed as reduction in cell migration measured after 24 hrs by scratch wound healing assay; type: functional, cell-based; conditions: dose 3-6 µM
A549 [4] = assay: Antitumor activity against human A549 cells xenografted in nude mouse assessed as decrease in tumor weight at 20 mg/kg, ip administered daily for 21 days and measured every 2 to 3 days; type: functional; conditions: 504 h, time 21 day
[5] = Bioavilability in rat at 5 mg/kg, ig; type: ADME, organism-based; conditions: in vivo, po
[6] = target: T2, Interleukin-6 receptor subunit beta (Homo sapiens, UniProt P40189); assay: Binding affinity to immobilized GP130 (unknown origin) by SPR analysis
T2 sequence (P40189 whole entry): T1 sequence (whole entry)

A549 [7] = assay: Induction of apoptosis in human A549 cells assessed as increase in cleaved caspase-7 level at 3 to 9 uM incubated for 24 hrs by Western blot analysis; type: functional, cell-based; conditions: dose 3-9 µM
A549 [8] = assay: Induction of apoptosis in human A549 cells assessed as viable cells at 6 uM incubated for 24 hrs by annexin V-FITC and propidium iodide staining based flow cytometry analysis (reference value: 97.7 %); type: functional; conditions: read-out: Activity
[9] = target: T1, Interleukin-6 receptor subunit beta (Homo sapiens); assay: Inhibition of GP130 in human A549 cells assessed as reduction in cyclin-D1 protein expression after 24 hrs by Western blot analysis; type: cell-based; conditions: dose 3-9 µM
[10] = target: T1, Interleukin-6 receptor subunit beta (Homo sapiens); assay: Binding affinity to D2/D3 domain of FLAG-tagged GP130 (unknown origin) expressed in HEK293 cells assessed as inhibition of rhIL6/Myc-tagged IL6R interaction with GP130 at 10 uM preincubated for 4 hrs followed by stimulation with recombinant human IL6 for 30 mins by co-immunoprecipitation method; type: cell-based; conditions: time 270.0 min
[11] = AUC (0 to infinity) in rat at 0.5 mg/kg, iv; type: ADME, organism-based; design: route intravenous, time infinity, dose 0.5 mg/kg; conditions: in vivo
A549 [12] = assay: Induction of ROS generation in human A549 cells assessed as fold increase in ROS level at 3 uM after 24 hrs by DCFH-DA staining based flow cytometric analysis relative to control; type: functional
A549 [13] = assay: Induction of apoptosis in human A549 cells assessed as necrotic cells at 6 uM incubated for 24 hrs by annexin V-FITC and propidium iodide staining based flow cytometry analysis (reference value: 0.4 %); type: functional
[14] = target: T1, Interleukin-6 receptor subunit beta (Homo sapiens); assay: Inhibition of GP130 in human A549 cells assessed as decrease in JAK2 phosphorylation at 3 to 9 uM incubated for 24 hrs by western blot analysis; type: cell-based; conditions: dose 3-9 µM
A549 [15] = assay: Induction of apoptosis in human A549 cells assessed as viable cells at 9 uM incubated for 24 hrs by annexin V-FITC and propidium iodide staining based flow cytometry analysis (reference value: 97.7 %); type: functional; conditions: read-out: Activity
[16] = Toxicity in nude mouse xenografted with human A549 cells assessed as effect on body weight at 10 to 20 mg/kg, ip administered daily for 21 days and measured every 2 or 3 days; type: organism-based; conditions: in vivo, 504 h, dose 10-20 mg/kg, time 21 day
A549 [17] = assay: Induction of apoptosis in human A549 cells assessed as increase in cleaved PARP level at 3 to 9 uM incubated for 24 hrs by Western blot analysis; type: functional, cell-based; conditions: dose 3-9 µM
[18] = Acute toxicity in ICR mouse assessed as abnormal behaviour at 120 mg/kg measured after 2 weeks; type: organism-based; conditions: in vivo, 336 h
A549 [19] = assay: Antitumor activity against human A549 cells xenografted in nude mouse assessed as decrease in tumor weight at 10 mg/kg, ip administered daily for 21 days and measured every 2 to 3 days; type: functional; conditions: 504 h, time 21 day
A549 [20] = assay: Induction of apoptosis in human A549 cells assessed as early apoptotic cells at 3 uM incubated for 24 hrs by annexin V-FITC and propidium iodide staining based flow cytometry analysis (reference value: 0.5 %); type: functional
[21] = target: T1, Interleukin-6 receptor subunit beta (Homo sapiens); assay: Binding affinity to GP130 in human A549 cell lysates assessed as decrease in pronase mediated protein degradation by measuring increase in abundance of GP130 band at 100 to 1000 uM preincubated for 1 hr followed by pronase addition for 30 mins by DARTS assay; type: subcellular; conditions: dose 100-1000 µM, time 90.0 min
A549 [22] = assay: Induction of apoptosis in human A549 cells assessed as early apoptotic cells at 6 uM incubated for 24 hrs by annexin V-FITC and propidium iodide staining based flow cytometry analysis (reference value: 0.5 %); type: functional
[23] = Acute toxicity in ICR mouse assessed as mortality at 120 mg/kg measured after 2 weeks; type: organism-based; conditions: in vivo, 336 h
[24] = AUC (0 to t) in rat at 0.5 mg/kg, iv; type: ADME, organism-based; design: dose 0.5 mg/kg; conditions: in vivo
A549 [25] = assay: Potency index, ratio of bazedoxifene IC50 to test compound IC50 for antiproliferative activity against human A549 cells after 24 hrs by MTT assay; type: functional
[26] = target: T1, Interleukin-6 receptor subunit beta (Homo sapiens); assay: Inhibition of GP130 in human A549 cells assessed as reduction in bcl2 protein expression after 24 hrs by Western blot analysis; type: cell-based; conditions: dose 3-9 µM
[27] = Half life in rat at 5 mg/kg, ig; type: ADME, organism-based; conditions: in vivo, po
[28] = Clearance in rat at 0.5 mg/kg, iv; type: ADME, organism-based; conditions: in vivo
[29] = AUC (0 to t) in rat at 5 mg/kg, ig; type: ADME, organism-based; design: dose 5 mg/kg; conditions: in vivo, po

Q: What does the source list for NC(=O)N1N=C(c2ccc(C(F)(F)F)cc2)CC1c1cn(Cc2ccc(OCCN3CCCCCC3)cc2)c2ccc(Br)cc12 (centres undefined)?
A: inhibition [1]: Dose-dependent effect; CL [2]: 14.8 mL/min/kg; Activity (A549 [3]): Dose-dependent effect; inhibition in vivo at 20 mg/kg (A549 [4]): 59%; bioavailability [5]: 5.6%; Kd [6]: 3.8 µM; Activity (A549 [7]): Active; viability at 6 µM (A549 [8]): 91.5%; inhibition [9]: Dose-dependent effect; Activity [10]: inactive; AUC(0-inf) [11]: 585 ng·h/mL; fold change (FC) (A549 [12]): 1.93; Activity (A549 [13]): 1.9%; Activity [14]: Active; viability at 9 µM (A549 [15]): 60.6%; Activity [16]: Non-Toxic; Activity (A549 [17]): Active; Activity [18]: Non-Toxic; inhibition in vivo at 10 mg/kg (A549 [19]): 27.1%; Activity (A549 [20]): 0.9%; Activity [21]: Active; Activity (A549 [22]): 1.7%; Activity [23]: Non-Toxic; AUC(0-t) [24]: 468 ng·h/mL; Ratio IC50 (A549 [25]): 5.5; inhibition [26]: Dose-dependent effect; half-life [27]: 9.8 h; clearance [28]: 14.5 mL/min/kg; AUC(0-t) [29]: 304 ng·h/mL
